Experiments:
[1] = system: ICR male mice; assay: Anti-reserpine action (antagonistic action against hypothermia); format: in vivo; details: Mus musculus, 2 h; SC; mice given reserpine 5 mg/kg s.c. 3 or 3.5 hours before; estimated from regression line; read-out: Concentration of test compound necessary for raising body temperature by 1°C on the average for 120 minutes
Experimental: Anti-reserpine action (Antagonistic action against hypothermia)
ICR male mice weighing 35 - 40 g were subcutaneously administered with reserpine at the dose of 5 mg/kg. About 2 hours later, each of the mice was held by a mouse-holder, and a body temperature sensor was intrarectally inserted. Thereafter, the body temperature was automatically measured every 10 minutes. The test compound dissolved in saline was subcutaneously administered 3 or 3.5 hours after administration of reserpine. After the administration of the test compound, the body temperature was measured every 10 minutes over the period of 120 minutes. The area below the body temperature line during the period was calculated, from which the regression line was estimated based upon least square method, and estimated was the amount of the test compound necessary for raising the body temperature by 1°C on the average for 120 minutes from that just before the administration of the test compound (Table 1).

[2] = system: ICR male mice; assay: Anti-chlorpromazine action (locomotor stimulant action); format: in vivo; details: Mus musculus, 2 h; SC; mice given chlorpromazine HCl 5 mg/kg s.c. one hour before; estimated from regression line; read-out: Concentration of test compound necessary for inducing 3000 count of automatism quantity in 2 hours
Experimental: Anti-chlorpromazine action (Locomotor stimulant action)
ICR male mice weighing 35 - 40 g (four animals per group) were subcutaneously administered with chlorpromazine HCl at the dose of 5 mg/kg and immediately set in the automatic locomotor-measuring apparatus (AUTOMEX). One hour later, the test compound dissolved in saline was subcutaneously administered, and the locomotor activity was measured every 15 minutes for 120 minutes. The total locomotor activity during the period of 120 minutes was calculated and the regression line was estimated based on the method of least squares, from which the amount of the test compound necessary for inducing 3000 locomotor-count was estimated (Table 2).

SMILES | ED (1 C rise of body temperature) [1] [mg/kg] | ED (3000 locomotor counts) [2] [mg/kg]
CSCC[C@H](NC(=O)[C@H]1NC(=O)C[C@H]1C)C(=O)N1CCC[C@H]1C(N)=O [Compound 2A, N-(cis-3-Methylpyroglutamyl)-L-methionyl-L-prolinamide] | 0.48 | 1.64
CCCC[C@H](NC(=O)[C@H]1NC(=O)C[C@H]1C)C(=O)N1CCC[C@H]1C(N)=O [Compound 5A, N-(cis-3-Methylpyroglutamyl)-L-norleucyl-L-prolinamide] | 0.33 | 16.3
CCC[C@H](NC(=O)[C@H]1NC(=O)C[C@H]1C)C(=O)N1CCC[C@H]1C(N)=O [Compound 3A, N-(cis-3-Methylpyroglutamyl)-L-norvalyl-L-prolinamide] | 0.91 | 
CC(C)C[C@H](NC(=O)[C@H]1NC(=O)C[C@H]1C)C(=O)N1CCC[C@H]1C(N)=O [Compound 1A, N-(cis-3-Methylpyroglutamyl)-L-leucyl-L-prolinamide] | 0.18 | 2.63
NC(=O)[C@@H]1CCCN1C(=O)[C@H](Cc1c[nH]cn1)NC(=O)[C@@H]1CCC(=O)N1 [TRH, L-pyroglutamyl-L-histidyl-L-prolinamide, reference compound] |  | 6.82
